Measured values as given in patent publication US8858914B2 (Endocyte, Inc., priority 2002, dated 2014).

Experiments:
M109 tumor nodules = test: imaging of metastatic tumor nodules of M109 cell origin (ip or iv inoculation); format: in vivo, mouse
Description: In order to test the ability of folate-fluorescein to facilitate detection of microscopic tumor nodules, metastatic tumors of M109 cell origin were induced by inoculation of cells either into the peritoneal cavity (ip) or femoral vein (iv) of the syngeneic mice. After allowing sufficient time for tumor growth, tumor loci were again imaged by intravenous administration of folate-fluorescein followed by laser excitation.

[1] = test system: folate receptor-expressing tumor tissue
L1210 tumor nodules = test: imaging of metastatic L1210 lesions after iv inoculation; format: in vivo, mouse
Description: To further explore the ability of folate-fluorescein to image small metastatic lesions, L1210 cells were also inoculated intravenously into syngeneic mice and the various anatomical regions were again imaged as above. Since L1210 cells are lymphocytic in origin and relatively small in size, they are capable of forming tumor nodules throughout the body after iv injection, rather than becoming entrapped primarily in the lung capillary network. […] Further, the animal's spleen was almost entirely filled with minute tumor loci (FIG. 9a) and was consequently enlarged to roughly twice its normal size. Tumor nodules were also found in muscle tissue near the shoulder (FIG. 9b) and in the brain, spinal cord, and along the pleura.

[2] = test system: arthritic joints (folate receptor expressing macrophages); settings: rat paws
Description: Targeting a photosensitizer to arthritic joints allow phototherapy to be applied to the arthritic joint while preventing toxicity to other tissues. […] One potential application of arthritis imaging is in the area of sport animal medicine. Race animals, such as dogs or horses, that have arthritis, could be diagnosed in an easy, inexpensive, and nonradioactive manner by using fluorescent imaging agents.

M109 and L1210 tumors = test: whole-tissue fluorescence imaging of tumors vs adjacent normal tissue after iv injection; format: in vivo, mouse; settings: M109 (Balb/c) and L1210 (DBA) tumors, 2 h after iv injection, argon laser 488 nm
Procedure: Whole-tissue fluorescent imaging is performed using the imaging system 110 shown in FIG. 2 including an argon laser 12 (Spectra-Physics, Mountain View, Calif.) operating at 488 nm with a total laser power of 200 mW reaching the 2 cm sample field of view 114. Fluorescence is detected by a colored CCD camera 116 such as a JAI CV-53200N manufactured by Edmund Industrial Optics, Barrington, N.J. with a sensing area of 768×494 pixels and a pixel size of […]. An f/5.6 152-457 mm 10× CCD zoom lens 118, also produced by Edmund Industrial Optics, Barrington, N.J., is used to collect fluorescence from the 2.0 cm×2.0 cm field of view 114. A band pass filter 120 with […] 80% T at 515-585 nm (Inter, Inc., Socorro, N.M.) is placed between the lens 118 and the CCD Camera 116 in order to reject laser light 20 and suppress tissue auto-fluorescence outside the fluorescein fluorescence band. The images are digitally acquired using SNAPPY software v. 4.0 manufactured by Play, Inc., Sacramento, Calif.
The light 20 of laser 12 is aimed via a plurality of mirrors 26 such that the light 20 passes through a diffusing lens 124 to illuminate the field of view 114 as shown in FIG. 2. […]
In fact, the differences in fluorescence intensity were readily apparent to the naked eye without the assistance of optical equipment as shown in the upper pictures of FIGS. 5a-c. […]

## folate-γ-fluorescein [folate-fluorescein]
M109 tumor nodules; intravenously inoculated mice, lungs
  fluorescence of tumor metastases compared to adjacent nonmalignant tissue: all tumor metastases fluoresced intensely
M109 tumor nodules; lungs of intravenously inoculated mice, iv conjugate, laser excitation
  size of metastatic tumor nodules readily observable: smaller than 0.5 mm
[1]; liver and muscle tissues not expressing the folate receptor
  fluorescence intensity of liver and muscle tissues, injected vs noninjected mice: no difference in fluorescence intensity
[1]; tumor tissue, 2 h after injection of 8.7 μg, laser excitation
  fluorescence of tumor tissue from injected mice relative to autofluorescence of noninjected controls: approximately fivefold
L1210 tumor nodules; most tissues of the body, laser illumination
  fluorescence of L1210 tumor nodules throughout the body: no nodules were identified that did not fluoresce
L1210 tumor nodules; under and top surface of the liver
  detection of microscopic L1210 nodules in liver under laser illumination: clearly revealed under laser illumination
[2]
  contrast between arthritic and non-arthritic tissues: discernable contrast
M109 and L1210 tumors
  fluorescence of tumors compared with adjacent normal tissues: significantly more fluorescent than adjacent normal tissues
